What was measured:
Assay type in all cases: cell-based, human
mature hCOs [1] = assay: mature hCO, cardiomyocyte proliferation (Ki-67 intensity, Ki-67+ α-actinin cardiomyocytes); conditions: mature hCO; for Ki-67+ cardiomyocytes: 2 days, compound 3 at 3 μM, 63 at 0.3 μM, 65 at 1 μM; for proliferative response (Ki-67 intensity) with 10 μM simvastatin: 1 μM compound 65, 3 μM compound 3 or 10 μM compound 6.28; for proliferation above the optimal concentrations: above 3 μM (compound 3), above 1 μM (compound 65)
Procedure: (§1) hCOs were cultured in CTRL medium for formation for 5 days and then either kept in CTRL medium culture or changed to maturation medium (Mills et al., 2017a) comprising DMEM without glucose, glutamine and phenol red (ThermoFisher Scientific) supplemented with 4% […](without insulin) (ThermoFisher Scientific), 1% GlutaMAX (ThermoFisher Scientific), 200 μM L-ascorbic acid 2-phosphate sesquimagnesium salt hydrate and 1% Penicillin/Streptomycin (ThermoFisher Scientific), 1 mmol/L glucose and 100 μmon palmitic acid (conjugated to bovine serum albumin within B27 by incubating for 2h at 37° C., Sigma) with changes every 2-3 days.
(§2) Whole-Mount Immunostaining hCOs were fixed for 60 min with 1% paraformaldehyde (Sigma) at room temperature and washed 3× with PBS, after which they were incubated with primary antibodies (see Star Methods Table) in Blocking Buffer, 5% FBS and 0.2% Triton-X-100 (Sigma) in PBS overnight at 4° C. Cells were then washed in Blocking Buffer 2× for 2 h and subsequently incubated with secondary antibodies (see Star Methods Table) and Hoechst33342 (1:1000) overnight at 4° C. They were washed in Blocking Buffer 2× for 2 h and imaged in situ or mounted on microscope slides using Fluoromount-G (Southern Biotech).
(§3) For screening hCOs were imaged using a Leica DMi8 high content imaging microscope for in situ imaging. Custom batch processing files were written in Matlab R2013a (Mathworks) to remove the background, calculate the image intensity, and export the batch data to an Excel (Microsoft) spreadsheet.
(§4) For more detailed images an Olympus IX81 confocal microscope was used for mounted hCO imaging. For cell cycle analysis experiments 3 random fields of view were imaged and manually quantified for proliferation. These were added together to calculate the percentage of hPSC-CM proliferation in each hCO.
(§5) Hits were next validated in mature hCOs using a targeted concentration range based on their active concentrations in the initial immature hCO screen (FIG. 3A). Proliferation markers were quantified using high magnification confocal imaging as we found flow cytometry to be inaccurate in hCO (data not shown). Compounds 3, 63 and 65 had no impact on contractile force (FIG. 3B) at concentrations of 3 μM, 0.3 μM and 1 μM, respectively. […] The effects of both compound 3 and compound 65 were reversible, with proliferation ceasing within 5 days of compound withdrawal (FIG. 8B). Therefore, compound 3 (FIG. 3G) and compound 65 (Goldberg et al., 2009) (FIG. 3H) are both capable of inducing bona fide cardiomyocyte proliferation in mature hCOs without adversely affecting contractile properties.

hPSC-CMs = assay: 2D high-content primary screen, DNA synthesis (EdU) in hPSC-CM; conditions: for 2D Screen Max Effect (%): maximum over 0.1, 1, 10 uM
From the text: (§6) The compound library included 5,000 biologically annotated pre-clinical, clinical, and tool compounds. They were selected based on a combination of criteria including balancing the number of external/internal compounds, diversity of annotated targets to cover greater than 1500 biological targets, and known targets associated with cell proliferation. […] Both negative vehicle (DMSO) and positive (CHIR99021) controls were included on each plate in each experiment (FIG. 2B,C).

mature hCOs [2] = assay: mature hCO, cardiomyocyte number, hCO size, bi-nucleation, cardiomyocyte size; conditions: for cardiomyocyte number / bi-nucleation / hCO size (α-actinin area): 3 μM compound 3 or 1 μM compound 65; for bi-nucleation: 4 days; for hCO size (α-actinin area): 7 days
Procedure: as §4
Cells were dissociated by washing in perfusion buffer at 37° C. (130 mM NaCl, 1 mM MgCl2, 5 mM KCl, 0.5 mM NaH2PO4, 10 mM HEPES, 10 mM Taurine, 10 mM glucose, 10 μM 2,3-butanedione monoxime, pH 7.4). hCO were then incubated in EDTA buffer at 37° C. for 5 min (130 mM NaCl, 5 mM KCl, 0.5 mM NaH2PO4, 10 mM HEPES, 10 mM Taurine, 10 mM glucose, 5 mM EDTA, 10 μM 2,3-butanedione monoxime, pH 7.4). hCO were washed in perfusion buffer and then incubated in perfusion buffer plus 1 mg/ml collagenase B (Roche) for 15 min at 37° C. on a shaker at 500 rpm. Equivolume 0.25% trypsin-EDTA (ThermoFisher) was then added and the hCOs were incubated for 10 min at 37° C. on a shaker at 500 rpm. Perfusion buffer with 5% FBS was then added and the single cells pelleted by centrifuging at 1000×g for 3 min. The cells were then resuspended in 1% para-formaldehyde and incubated for 5 min at room temperature. hCO were then centrifuged at 1000×g for 3 min, paraformaldehyde removed, suspended in PBS and counted using a haemocytometer.
as §5

immature hCOs = assay: immature hCO screen, Ki-67 intensity (proliferation); conditions: for proliferation in immature hCO (Ki-67 intensity): 0.1, 1 and 10 μM, 2 days; for hCO Screen Max Effect (%): maximum over 0.1, 1, 10 uM
Procedure: Heart-dyno culture inserts were fabricated using standard SU-8 photolithography and PDMS molding practices (Mills et al., 2017a). CTRL medium: α-MEM GlutaMAX (ThermoFisher Scientific), 10% fetal bovine serum (FBS) (ThermoFisher Scientific), 200 μM L-ascorbic acid 2-phosphate sesquimagnesium salt hydrate (Sigma) and 1% Penicillin/Streptomycin (ThermoFisher Scientific). For each hCO, 5×10^4 cardiac cells in CTRL medium were mixed with collagen I to make a 3.5 μL final solution containing 2.6 mg/mL collagen I and 9% Matrigel. The bovine acid-solubilized collagen I (Devro) was first salt balanced and pH neutralized using 10×DMEM and 0.1 M NaOH, respectively, prior to mixing with Matrigel and cells. The mixture was prepared on ice and pipetted into the Heart-Dyno. The Heart-Dyno was then centrifuged at 100×g for 10 s to ensure the hCO form halfway up the posts. The mixture was then gelled at 37° C. for 60 min prior to the addition of CTRL medium to cover the tissues (150 μL/hCO). The Heart-Dyno design facilitates the self-formation of tissues around in-built PDMS exercise poles (designed to deform ˜0.07 μm/μN). The medium was changed every 2-3 days (150 μL/hCO).
as §1, §2, §3, §6

mature hCOs [3] = assay: mature hCO, force of contraction; conditions: 2 days, compound 3 at 3 μM, 63 at 0.3 μM, 65 at 1 μM
Procedure: as §1
The pole deflection was used to approximate the force of contraction as per (Mills et al., 2017a). A Leica DMi8 inverted high content Imager was used to capture a 10 s time-lapse of each hCO contracting in real time at 37° C. […]
Hits were next validated in mature hCOs using a targeted concentration range based on their active concentrations in the initial immature hCO screen (FIG. 3A). Proliferation markers were quantified using high magnification confocal imaging as we found flow cytometry to be inaccurate in hCO (data not shown). […]

Compound: Cc1ccc(NC(=O)c2ccnc(N3CCOCC3)c2)cc1Nc1ccnc(N2CC(C)OC(C)C2)n1 (centres unmarked) [compound 3]
- Ki-67+ cardiomyocytes with 10 μM simvastatin (mature hCOs [1]; 3 μM compound 3): abolished
- Ki-67+ cardiomyocytes (mature hCOs [1]): increased
- proliferative response (Ki-67 intensity) with 10 μM simvastatin (mature hCOs [1]): abolished
- proliferation above the optimal concentrations (mature hCOs [1]): no further increase
- 2D Screen (AZ) 0.1 uM Prolif Activation EdU (%) (hPSC-CMs): −6%
- 2D Screen (AZ) 1 uM Prolif Activation EdU (%) (hPSC-CMs): 35%
- 2D Screen (AZ) 10 uM Prolif Activation EdU (%) (hPSC-CMs): 183%
- 2D Screen Max Effect (%) (hPSC-CMs): 183%
- cardiomyocyte size with 10 μM simvastatin (mature hCOs [2]; 3 μM compound 3, 2 days): without significant changes
- cardiomyocyte number (mature hCOs [2]): increase
- cardiomyocyte size (mature hCOs [2]; 3 μM, 2 days): decreases
- bi-nucleation (mature hCOs [2]): without an increase
- hCO size (α-actinin area) (mature hCOs [2]): increase
- cardiomyocyte size (mature hCOs [2]; compound 3 or compound 65): without an increase
- hCO Screen 0.1 uM Prolif Activation Ki-67 (%) (immature hCOs): 299%
- hCO Screen 1 uM Prolif Activation Ki-67 (%) (immature hCOs): 23%
- hCO Screen 10 uM Prolif Activation Ki-67 (%) (immature hCOs): 111%
- proliferation in immature hCO (Ki-67 intensity) (immature hCOs): induced proliferation
- hCO Screen Max Effect (%) (immature hCOs): 299%
- contractile force (mature hCOs [3]): no impact

Compound: Cc1cc(Oc2ccnc(Nc3ccc(S(N)(=O)=O)cc3)c2)c(-c2ccccn2)nc1C [compound 65]
- Ki-67+ cardiomyocytes (mature hCOs [1]): increased
- proliferative response (Ki-67 intensity) with 10 μM simvastatin (mature hCOs [1]): abolished
- proliferation above the optimal concentrations (mature hCOs [1]): no further increase
- 2D Screen (AZ) 0.1 uM Prolif Activation EdU (%) (hPSC-CMs): 48%
- 2D Screen (AZ) 1 uM Prolif Activation EdU (%) (hPSC-CMs): 76%
- 2D Screen (AZ) 10 uM Prolif Activation EdU (%) (hPSC-CMs): 171%
- 2D Screen Max Effect (%) (hPSC-CMs): 171%
- cardiomyocyte size, combined with 10 μM simvastatin (mature hCOs [2]; 1 μM, 2 days): increased
- cardiomyocyte number (mature hCOs [2]): increase
- bi-nucleation (mature hCOs [2]): without an increase
- hCO size (α-actinin area) (mature hCOs [2]): increase
- cardiomyocyte size (mature hCOs [2]; compound 3 or compound 65): without an increase
- hCO Screen 0.1 uM Prolif Activation Ki-67 (%) (immature hCOs): −38%
- hCO Screen 1 uM Prolif Activation Ki-67 (%) (immature hCOs): 96%
- hCO Screen 10 uM Prolif Activation Ki-67 (%) (immature hCOs): 121%
- proliferation in immature hCO (Ki-67 intensity) (immature hCOs): induced proliferation
- hCO Screen Max Effect (%) (immature hCOs): 121%
- contractile force (mature hCOs [3]): no impact
